Series [1] concerns K562 human myelogeneous leukaemia cell line. Nature of the series: Cytotoxicity/growth inhibition assay (MTT), K562. In kind it is cell-based. The following applies: Homo sapiens, K562; MTT; read-out: K562 IC50. The method in brief: (§1)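 Growth inhibition of P388 murine and K562 human leukaemia cells measured by MTT assay.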
The test system of series [2] is T1, tubulin.
T1 construct: other: concentration required to reduce assembly of tubulin by 50%
The experiment in a line: Inhibition of tubulin assembly. In kind it is biochemical. Particulars: concentration required to reduce assembly of tubulin by 50%. The method in brief:
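Value is the concentration reducing tubulin assembly by 50%. Assembly followed by light scatter/absorption at 350 nm.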

For series [3] the following is noted: background; cited from earlier work.
The subject of the next series is K562. Nature of the series: K562 cell cycle analysis. It counts as cell-based, human.
For another series, the system named is A2780. Nature of the series: Cytotoxicity/growth inhibition assay (MTT), A2780. In kind it is cell-based. The method in brief: (§2)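 MTT cytotoxicity/growth-inhibition assay in human cell lines including A2780, A2780/ADR, H460 and HUVEC.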
The subject of series [4] is diaphorase null H596 cell line. Nature of the series: Cytotoxicity/growth inhibition assay (MTT), H596. In kind it is cell-based. Particulars: for H596/H460: ratio of IC50, diaphorase null H596 over H460. How it is done:
(§3) The following assays (1–5) were carried out as described in our paper (Woods, et al, British Journal of Cancer, 71, 705–711 (1995)). In addition to the cell lines described in this paper, other established human cell lines (K562, HUVEC, H460, BE, H529, and HT29) were used in the cytotoxicity/growth inhibition assay. • (1) Inhibition of tubulin assembly. The figure quoted is the concentration required to reduce assembly of tubulin by 50%. Tubulin assembly is monitored by light scatter/absorption at 350 nm.
(§4) (2) Competition for the colchicine binding site on tubulin. The figure quoted represents the % of ^3H-colchicine bound following co-incubation of test compound and ^3H-cochicine with isolated tubulin. Where ester pro-drugs were used the experiments were carried out in the presence and absence of porcine liver esterase. • (3) Cytotoxicity/growth inhibition assay. This was carried out by the MTT assay. • (4) Permeability (shape-change) assay in endothelial cells. This was carried out using a method based on that of Watts et al. (Anticancer Res., 17, 71–75, (1997)). This involved the diffusion of a fluorescently labelled dextran through a barrier of endothelial cells (HUVEC) grown to confluence on a porous membrane. The effect of agents to alter the shape of these cells results in an increase in the permeability of the cells to the dye. The figure represents the increase in permeability over control cultures when drug is added (30 minutes, 1 mM.). • (5) Experiments to study the anti-vascular effects of these agents were carried out as described previously by our group. (Zhao et al, European Journal of Nuclear Medicine, 26, 231–238 (1999)). The anti-vascular effects of the agents were monitored by either positron emission tomography (PET) or by histologogical examination following treatment of mice bearing T50:80 murine breast tumours, or H460 human lung tumours. • (6) Anti-tumour efficacy of agents was determined in xenografts of H460 human lung cancer. Animals (n=5) were trated either with 5 daily injections and tumour size measured with time following treatment. • (7) The pharmacokinetic profile of agents was determined in mice following injection with drug. Blood was taken at various times following treatment and analysed by HPLC with UV detection. The HPLC conditions were isocratic using a 5 micron C18 BDS column (150×4.6) ad eluting with 75% MeOH in water with a detection wavelength of 290 nm. The retention time of 6.6 mins for 97–64H. • (8) Activation of quinone prodrugs by DT-diaphorase. (AND(P)H:quinone oxidoreductace, EC 1.6.99.2). DT-diaphorase is an enzyme over-expressed in a number of human tumours. We have recently shown this enzyme to be highly expressed in the endothelial cells of blood vessels. This two-electron reducing enzyme can be used to selectively activate prodrugs within cancers which over-express the enzyme. We have therefore synthesised quinone pro-drugs (97–96, 98–40, 98–23, 98–33, 98–24) which, upon reduction by the enzyme, produces an agent (a hydroquinone stilbene) which is cytotoxic.
A series of prodrugs capable of being activated by DT-diaphorase, an enzyme over-expressed in a wide range of human cancers and in endothelial cells of the vasculature were synthesised. The rationale for this is that these agents will be activated in situ by the tumours over-expressing the enzyme, thus giving rise to a high local concentration of active drug. This confers selectivity to this agent. These quinone prodrugs (97–96 and 98–23) were tested for their ability to act as substrates for DT-diaphorase. […] This agent may therefore have a role in the treatment of tumours that over-express DT-diaphorase. Similarly, these agents maybe selectively activated in the endothelial cells of the vasculature, thereby conferring a selective anti-vascular effect.

Series [5] concerns P388 murine leukaemia cell line. The experiment in a line: Cytotoxicity/growth inhibition assay (MTT), P388. In kind it is cell-based. Summed up: as §1
Series [6] relates to H460 human lung cell line. Nature of the series: Cytotoxicity/growth inhibition assay (MTT), H460. It counts as cell-based. Here is the method: as §3
as §4, with “The retention time of 6.6 mins for 97–64H. • (8) Activation of quinone prodrugs by DT-diaphorase.” left out, “We have recently shown this enzyme to be highly expressed in the endothelial cells of blood vessels.” left out, “enzyme.” for “enzyme. We have therefore synthesised quinone pro-drugs (97–96, 98–40, 98–23, 98–33, 98–24) which, upon reduction by the enzyme, produces an agent (a hydroquinone stilbene) which is cytotoxic.”

Series [7] deals with cancer cell growth in vitro. Particulars: background; cited from earlier work.
A further series deals with K562 cells. The experiment in a line: In situ ultra violet irradiation of dosed K562 cells, IC50. In kind it is cell-based, human. The following applies: K562, in situ, within 2 seconds of exposure; read-out: IC50 after exposure to ultraviolet light. How it is done: Previously, the isomerisation study had been performed ex situ, i.e. in a photochemical reactor. However, it was necessary to illustrate the potential of the process as a real therapy by repeating the isomerization in the presence of the caner cells i.e. in situ. […] Following irradiation, the cells were incubated in the normal way and the IC50 values were determined.
These consisted of i) exposing K562 cells only (i.e. cells which were not dosed with any potential drug candidate) to ultra violet light, ii) preventing K562 cells dosed with drug candidate from being exposed to ultra violet light, and iii) preventing K562 cells only (i.e. cells which were not dosed with any potential drug candidate) from being exposed to ultra violet light. […]

Another series deals with DT-diaphorase (Homo sapiens, UniProt P15559). The experiment in a line: Activation of quinone prodrugs by DT-diaphorase. In kind it is biochemical. The following applies: comparable to RH1. How it is done:
(§5) (2) Competition for the colchicine binding site on tubulin. The figure quoted represents the % of ^3H-colchicine bound following co-incubation of test compound and ^3H-cochicine with isolated tubulin. Where ester pro-drugs were used the experiments were carried out in the presence and absence of porcine liver esterase. • (3) Cytotoxicity/growth inhibition assay. This was carried out by the MTT assay. • (4) Permeability (shape-change) assay in endothelial cells. This was carried out using a method based on that of Watts et al. (Anticancer Res., 17, 71–75, (1997)). This involved the diffusion of a fluorescently labelled dextran through a barrier of endothelial cells (HUVEC) grown to confluence on a porous membrane. […] The anti-vascular effects of the agents were monitored by either positron emission tomography (PET) or by histologogical examination following treatment of mice bearing T50:80 murine breast tumours, or H460 human lung tumours. • (6) Anti-tumour efficacy of agents was determined in xenografts of H460 human lung cancer. Animals (n=5) were trated either with 5 daily injections and tumour size measured with time following treatment. • (7) The pharmacokinetic profile of agents was determined in mice following injection with drug. Blood was taken at various times following treatment and analysed by HPLC with UV detection. […]

Another series deals with HUVEC. The experiment in a line: Growth inhibition studies using HUVEC. In kind it is cell-based, human. Summed up: as §2
Series [8] concerns H460 human lung cancer xenografts. The experiment in a line: Anti-tumour efficacy in xenografts of H460 human lung cancer. In kind it is in vivo, mice. Particulars: H460 human lung cancer xenograft. How it is done: as §5
Series [9] has as its system H460 human lung xenograft. The experiment in a line: Tumour damage in H460 human lung xenograft grown subcutaneously. Particulars: 0.75×MTD, i.p., twenty four hours following injection. It counts as in vivo. How it is done:
The effect of compounds 97–64H and 97–96 (quinone compound) was tested on H460 human lung xenograft grown subcutaneously by injecting equitoxic doses of the compounds (0.75×MTD).

Series [10] relates to cancer cell growth in vitro. The experiment in a line: Inhibition of cancer cell growth in vitro (cell line not stated). In kind it is cell-based. The following applies: read-out: IC50, ability to inhibit cancer cell growth in vitro.
Series [11] concerns L1210 murine leukaemia cell line. The experiment in a line: MTT, L1210. It counts as cell-based. The following applies: Mus musculus; L1210 murine leukaemia cell line (footnote a).
Series [12] relates to tubulin. Nature of the series: MA IC50 (Tables 12-26, abbreviation not defined). It counts as biochemical.
Series [13] relates to tubulin. The experiment in a line: CD IC50 (Tables 12-26, abbreviation not defined). It counts as binding.
Where [14] appears, read: Homo sapiens, A2780, read-out: IC50 (nM) A2780.

Read-outs that look alike come from different tables or passages of the source. Bounds are passed on as bounds.

The source of these data is patent US7220784B2, “Substituted stilbenes and their reactions” (priority 2000, dated 2007).

DT-diaphorase, sequence (P15559 whole entry, species assumed, the tested form may be a part): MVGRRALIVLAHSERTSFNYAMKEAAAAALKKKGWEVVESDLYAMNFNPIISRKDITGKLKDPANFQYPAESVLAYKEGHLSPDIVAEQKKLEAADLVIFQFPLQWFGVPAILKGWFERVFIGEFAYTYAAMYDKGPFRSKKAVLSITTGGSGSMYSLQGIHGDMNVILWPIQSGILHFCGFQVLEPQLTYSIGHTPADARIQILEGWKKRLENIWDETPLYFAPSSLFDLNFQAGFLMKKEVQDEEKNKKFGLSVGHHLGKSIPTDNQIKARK

In turn, `COc1ccc(/C=C(/C)c2cc(OC)c(OC)c(OC)c2)cc1O` [Compound 19, Z-(3′-Hydroxy-4′-methoxyphenyl)-2-(3″,4″,5″-trimethoxyphenyl)propene] returned a melting point of 156 to 158 °C. Besides, the concentration for half-maximal inhibition (IC50) in series [1] was found to be 40 nM. The molecule also yielded a half-maximal inhibitory concentration (IC50) in the series on tubulin [2] of 1.8 µM.

As to “cis-combretastatin A-4 [Compound 1, reference compound]”, in [3], the water solubility entry is reported as “poor water solubility”. For the same molecule, in the series with K562, the “% of cells in G0–G1” value is 3%, the “% of cells in G2-M” value is on record as 92%, the “% of cells in S phase” value was 6% and the “% of cells with DNA content <2 n” value is on record as 7%.

On to `COC1=CC(=O)C(CCc2cc(OC)c(OC)c(OC)c2)=CC1=O` [Compound 98-24], for which the IC50 with A2780 (setting [14]) came to 1630 nM; in [4] (Homo sapiens, NCI-H596), 1950 nM; in series [5] (Mus musculus, P388) it was 17000 nM; in [6] (Homo sapiens, NCI-H460), 3080 nM. In series [4], the H596/H460 turned out to be 0.63.

`COC(=O)CCOc1cc([N+](=O)[O-])c(CCc2cc(/C=C\c3cc(OC)c(OC)c(OC)c3)ccc2OC)cc1OC` yielded a melting point of 132 to 134 °C.

For `COc1ccc(/C=C/c2cc(OC)c(OC)c(OC)c2)cc1O` [trans-CA-4, trans-combretastatin A-4, reference compound], the inhibits cell growth entry in [7] is recorded as “μM range”. Also, in the series on K562 cells, the IC50 turned out to be 2 nM.

As to `COc1cc(/C=C/C2=CC(=O)C(C)=CC2=O)cc(OC)c1OC` [Compound 98-33], the IC50 in the series with A2780 (read-out: IC50 (nM) A2780) is 950 nM; in series [4] it was 1490 nM; in [5] it was < 780 nM; in series [6], 4110 nM. Besides, the H596/H460 in series [4] was found to be 0.36.

Consider `COc1cc(/C=C\C2=CC(=O)C(C)=CC2=O)cc(OC)c1OC` [Compound 98-23], for which the IC50 in the series on A2780 (read-out: A2780 IC50) was 2150 nM; with A2780 (read-out: IC50 (nM) A2780), 2150 nM; in series [4], 2280 nM; in series [5], 2180 nM; in [5] (MTT), 2180 nM; in series [6], 4370 nM. Moreover, in [4], the H596/H460 stood at 0.52. In addition, the “ability to act as substrate for DT-diaphorase” value on DT-diaphorase is on record as “good substrates for the enzyme”.

In the case of `COc1ccc(/C=C\c2cc(C)c(C)c(C)c2)cc1O` [Compound 28, (Z)-1-(3′,4′,5′-trimethylphenyl)-2-(3″-hydroxy-4″-methoxyphenyl)ethene], the melting point lay in the range of 60 to 61 °C. In series [1], the IC50 came to 21 nM. For the same molecule, the IC50 in the series with tubulin [2] came to 1.5 µM.

Take `COC1=CC(=O)C(/C=C\c2cc(OC)c(OC)c(OC)c2)=CC1=O` [Compound 97-96, 2-Methoxy-5-[(Z)-2-(3′,4′,5′-trimethoxyphenyl)-vinyl]-[1,4]benzoquinone]: the IC50 is 190 nM in the series on A2780 (Homo sapiens, A2780, read-out: A2780 IC50); 190 nM in the series on A2780 (setting [14]); 620 nM in [4] (Homo sapiens, NCI-H596); 220 nM in the series on HUVEC; 230 nM in the series on HUVEC (Homo sapiens, HUVEC); 570 nM in series [5] (Mus musculus, P388). Also, the IC50 in [5] (Mus musculus, P388, MTT) was 570 nM; in [6] (Homo sapiens, NCI-H460) it was 38 nM; in the series with tubulin [2], < 1.25 µM. Also, the H596/H460 in [4] was 16. For the same molecule, the “ability to act as substrate for DT-diaphorase” value at DT-diaphorase is recorded as “good substrates for the enzyme”. Further, the “anti-tumour activity in vivo” value in [8] is given as “active”. Further, in series [9], the tumour damage result was “extensive damage to the tumours”.

Consider `c1ccc2c(c1)ccc1ccccc12` [phenanthrene], for which, in [10], the half-maximal inhibitory concentration (IC50) was determined as 700 nM.

On to `COc1ccc(/C=C\c2cc(O)c(OC)c(OC)c2)cc1O` [Compound 18, reference compound], for which the IC50 is 0.04 µM in series [11], 4000 to 5000 nM in the series on tubulin [12] and 22000 nM in the series with tubulin [13].
